Reference: article PMC6162288, “On-chip spatiotemporal electrophysiological analysis of human stem cell derived cardiomyocytes enables quantitative assessment of proarrhythmia in drug development” (Scientific Reports, 2018)
Where “and” joins values, the source holds several entries; their conditions need not be identical. Identical values can stand only once.

Tests used:
lined-up hESC-CMs = test: MEA field potential recording of lined-up hESC-CMs (cFPD, CT, their STVs, ISI, beat rate, arrest); assay type: cell-based, human; settings: for BR (beat rate) / Cond. Time (CT) / ISI (inter-spike interval) / STVCT / STVcFPD / cFPD: change vs Ctrl.
Description: Human embryonic stem cell-derived cardiomyocytes clusters (hES-CMCs) were shipped from Cellectis (hES-CMCTM002, hES cell line SA002, Gothenburg, Sweden)[42],[43], and maintained in Dulbecco’s modified Eagle’s medium (DMEM) supplemented 20% heat-inactivated fetal bovaine serum, 1 mM GlutaMax, 100 U/mL penicillin, 0.1 mg/mL streptomycin, 1% nonessential amino acids and 0.1 mM β-mercaptoethanol (Invitrogen, Carsbad, CA, USA). Dispersed cardiomyocytes were isolated from hES-CMCs by a modification of the methods of Norström et al.[44]–[48]. […] The supernatant was gently aspirated with pipette, and a 5-hold volume of DMEM was added as stop solution. Remaining clusters were treats ed with the above process with several times. The supernatants were collected and centrifuged with 200 × g for 2–3 min at 4 °C. The resulting supernatant including dispersed cells was seeded into agarose microchambers on an MEA chip (MED-P530A; AlphaMED scientific. Co. Ltd., Japan)[40].
The MEA chip surface was prepared as follows. First, the chip surface was coated with collagen type I-C (Nitta Gelatin, Japan). After drying, the chip surface was coated with a 0.1% agarose gel. […] At >30 min before the start of experiment, the medium was changed to 2 mL pre-warmed fresh maintenance medium per chip.
Extracellular potential recordings of the lined-up hESC-CMs were performed using the MEA system at a sampling rate of 10 kHz with a low path filter of 2 kHz and high path filter of 1 Hz, and signals were amplified by 100–50,000 using the amplifier. The MEA chip with lined-up hESC-CMs was set in the FP measurement device and placed in a humidified cell culture incubator at 37 °C, 5% CO2. The signals were analyzed by Igor Pro 6.0 (WaveMetrics, Inc., USA) and FlexPro 7.0 (Weisang GmbH, Germany).
We adopted the same drug administration protocol as we examined previously[40] (Fig. 2B). Briefly, the MEA chips of lined-up cells for experiments were selected from the chips having 0.6–1.1 Hz beating frequency and ventricle-like waveforms of FP recordings (see Fig. 1B,D). The MEA chip was placed in the holder of the FP measurement device, and equilibrated for 5 min, and then the control FP waveforms were recorded for 10 min. Subsequently, the drug was applied to the medium at 1% dilution in serially increasing additions, and the FP waveforms were recorded for 10 min at each concentration. Finally, the drug-containing medium was replaced with fresh medium after washing three times. The last 50 beats extracted from 10 min recorded FP waveform data was used for beat rate, FPD (the time from first depolarization peak to broad repolarization peak) and CT (the time difference of the first peaks between separately placed electrodes in lined-upped cell-network) measurement at each concentration (Fig. 2C).
It was normalized (cFPD) to the beating rate of cardiomyocytes using Bazett’s correction formula based on the comparison of the slope of a plot of inter-spike interval and FPD, or corrected FPD by Bazett’s or Fridericia’s formulae (Fig. 3). The short-term variability (STV) of cFPD and CT, which was defined as the mean distance of points perpendicular to the line of identity in the Poincaré plot, was calculated ( STV=∑|D(n+1)−Dn|/(n×2) , where Dn represents the FPD and CT of n-th beating). STVs were last 50 beat data from 5 min extraction of cFPD and CT. To assess the arrhythmogenicity risk of test drugs, the mean values of cFPD, STVcFPD, CT and STVCT of each drug were plotted.

Nav1.5 = settings: read-out: IC50 Nav1.5; cited from earlier work
hERG = settings: cited from earlier work
Cav1.2 = settings: read-out: IC50 Cav1.2; cited from earlier work
[1] = cited from earlier work
[2] = Conc. 10^3 nM (1 μM), listed as astemizole

## COc1ccc(CCN2CCC(Nc3nc4ccccc4n3Cc3ccc(F)cc3)CC2)cc1 [Astemizole, astemizole]
lined-up hESC-CMs; Conc. 1 nM
  BR (beat rate): 6.0%
  Cond. Time (CT): −0.99%
  ISI (inter-spike interval): −5.4%
  STVCT: 46%
  STVcFPD: −14%
  cFPD: 0.24%
lined-up hESC-CMs; Conc. 10 nM
  BR (beat rate): 6.5%
  Cond. Time (CT): −3.0%
  ISI (inter-spike interval): −5.9%
  STVCT: 13%
  STVcFPD: 3.5%
  cFPD: 0.69%
lined-up hESC-CMs; Conc. 10^2 nM (0.1 μM)
  Cond. Time (CT): −1.4%
  STVCT: 483%
  STVcFPD: 14%
  cFPD: 4.4%
lined-up hESC-CMs; Conc. 10^2 nM (0.1 μM), listed as astemizole
  STVCT: 483%
lined-up hESC-CMs; Conc. 10^2 nM
  BR (beat rate): 6.1%
  ISI (inter-spike interval): −5.3%
lined-up hESC-CMs; Conc. 10^3 nM (1 μM)
  Cond. Time (CT): 126%
  STVCT: 196%
  STVcFPD: 122%
  cFPD: 43.7% and 44%
lined-up hESC-CMs; [2]
  STVCT: 196%
  STVcFPD: 122%
lined-up hESC-CMs; Conc. 10^3 nM
  BR (beat rate): −2.5%
  ISI (inter-spike interval): 3.1%
lined-up hESC-CMs; Conc. 10^−1 nM
  BR (beat rate): 2.0%
  ISI (inter-spike interval): −1.9%
  STVCT: 46%
  STVcFPD: −2.8%
  cFPD: −0.71%
lined-up hESC-CMs; Conc. 10^−1 nM, 150 μm inter-electrode distance
  Cond. Time (CT): −3.3%
lined-up hESC-CMs; at 10 times higher than therapeutic plasma concentrations
  FPD (repolarization index): […]
lined-up hESC-CMs; at equivalent concentrations of Nav1.5 IC50
  CT: increased
Nav1.5
  IC50: 2200 nM
hERG
  IC50: […]
Cav1.2
  IC50: 700 nM
[1]; effective therapeutic plasma concentration
  EPTC: 5.5 to 7.9 nM
[1]; unbound therapeutic plasma concentration
  Unbound: 0.2 to 0.26 nM
